The subject of the experiment is Endothelin A receptor. Description: ChEBML_63192.

The structures appear in SMILES notation. Non-standard residues stand in square brackets, D forms with d. Residues, ends and D or L forms follow the SMILES beside them.

This note sets out measurements from BindingDB's records for doi:10.1021/jm00095a029 (Warner-Lambert, 1992).

`CC[C@H](C)[C@H](NC(=O)[C@H](CC(=O)O)NC(=O)[C@H](CC(C)C)NC(=O)[C@@H](Cc1ccc(O)cc1)NC(C)=O)C(=O)N[C@H](C(=O)N[C@@H](Cc1c[nH]c2ccccc12)C(=O)O)[C@@H](C)CC` (Ac-[dY]LDIIW-OH) registered an IC50 of 400 nM.

As a reminder, the IC50 is the concentration at which inhibition is half-maximal. A lower IC50 goes with greater potency in that assay.
